Data on three molecules can be found in patent US20160361258A1 (priority 2015, published 2016).

Where only a bound is given, the exact number is not on record here.

One data set in a line: in vivo. The following applies: delivered sublingually or transmucosally. On the procedure: 7-methoxyflavone is an aromatase inhibitor. Aromatase inhibitors work by inhibiting the action of the enzyme aromatase, which converts androgens into estrogens by a process called aromatization. 7-methoxyflavone is a compound having poor bioavailability of about 5% when ingested. According to an embodiment of the present invention, from about 5 mg to 50 mg, and preferably from about 20 mg to 30 mg of 7-methoxyflavone may be included in the formulations and dosage forms of the present invention, when delivered sublingually or transmucosally. […] According to an embodiment, the 7-methoxyflavone may be from a plant extract. 7-methoxyflavone has been found in Meliaceae and Rutaceae plants. According to an embodiment, the 7-methoxyflavone may therefore be from an extract containing at least 90% 7-methoxyflavone, standardized. Preferably, extract contains at least […] 7-methoxyflavone, standardized.
According to an embodiment of the present invention, from about 5 mg to 50 mg, and preferably from about 20 mg to 30 mg of 7,8-benzoflavone may be included in the formulations and dosage forms of the present invention, when delivered sublingually or transmucosally. According to an embodiment, the half-life of 7,8-benzoflavone is about 1-2 h when delivered sublingually or transmucosally.

The conditions of data set [1]: prior art U.S. Pat. No. 5,880,117; humans; cited from earlier work.
The conditions of data set [2]: in vivo; cited from earlier work.

As to `O=c1cc(-c2ccccc2)oc2c1ccc1ccccc12` [7,8-benzoflavone, 2-phenyl-benzo(h)chromen-4-one], the half-life (commonly how long it takes for the measured level to halve) in “in vivo” lay within 1 to 2 h.

In the case of `C[C@]12CC[C@H]3[C@@H](CCC4=C[C@@H](O)CC[C@@]43C)[C@@H]1CC[C@@H]2O` [4-androstene-3β, 17β-diol], in data set [1], the “time of concentration peak after administration” value is at most 90 min.

As to `COc1ccc2c(=O)cc(-c3ccccc3)oc2c1` [7-methoxyflavone], the bioavailability entry in data set [2] was “about 5%”. This molecule also showed a half-life in the data set “in vivo” of 8 to 12 h.
